According to patent US8507488B2, “Fused nitrogen containing heterocycles and compositions thereof as kinase inhibitors” (IRM LLC, priority 2008, dated 2013):
Where two headings read alike, the source gives them in different places.

Tests used:
Tel-TrkA [1] = target: T1, Tel-TrkA (Homo sapiens, UniProt P04629); experiment: Inhibition of proliferation of Ba/F3 cells expressing Tel-TrkA (BaF3/Tel-TrkA, luciferase/Bright Glo readout); type: cell-based; conditions: read-out: Ba/F3 Tel-TrkA IC 50
T1 construct: dimerization domain of Tel (ETV6) transcription factor (fusion partner, human ETV6 P41212); expressed in transfected cells; host or cells: luciferase expressing Ba/F3 murine hematopoietic progenitor cells; the other entry of the earlier key: ETV6 (P41212, Transcription factor ETV6)
T1 sequence (P04629 510-796 limits assumed): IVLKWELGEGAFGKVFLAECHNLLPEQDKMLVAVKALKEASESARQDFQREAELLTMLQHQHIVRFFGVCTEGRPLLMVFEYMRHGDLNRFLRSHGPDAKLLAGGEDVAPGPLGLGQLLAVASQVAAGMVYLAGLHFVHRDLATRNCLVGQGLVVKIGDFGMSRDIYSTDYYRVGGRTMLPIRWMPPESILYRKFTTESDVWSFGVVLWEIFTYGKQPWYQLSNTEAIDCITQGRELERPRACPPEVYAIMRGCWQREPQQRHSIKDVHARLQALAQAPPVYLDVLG
Outline: (§1)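 Luciferase-expressing murine Ba/F3 cells transformed with human Tel-TrkA or Tel-TrkB, plated at 2000 cells/well in IL3-free RPMI/10% FBS. Exposed to 12 concentrations of 3-fold serially diluted compound for 48 hours at 37° C, 5% CO2. Bright Glo luminescence read-out, with IC50 from linear regression of percent inhibition.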

Tel-TrkB = target: T2, Tel-TrkB (Homo sapiens, UniProt Q16620); experiment: Inhibition of proliferation of Ba/F3 cells expressing Tel-TrkB (BaF3/Tel-TrkB); type: cell-based
T2 construct: dimerization domain of Tel (ETV6) transcription factor (fusion partner, human ETV6 P41212); expressed in transfected cells; host or cells: luciferase expressing Ba/F3 murine hematopoietic progenitor cells; the other entry of the earlier key: ETV6 (P41212, Transcription factor ETV6)
T2 sequence (Q16620 538-822 limits assumed): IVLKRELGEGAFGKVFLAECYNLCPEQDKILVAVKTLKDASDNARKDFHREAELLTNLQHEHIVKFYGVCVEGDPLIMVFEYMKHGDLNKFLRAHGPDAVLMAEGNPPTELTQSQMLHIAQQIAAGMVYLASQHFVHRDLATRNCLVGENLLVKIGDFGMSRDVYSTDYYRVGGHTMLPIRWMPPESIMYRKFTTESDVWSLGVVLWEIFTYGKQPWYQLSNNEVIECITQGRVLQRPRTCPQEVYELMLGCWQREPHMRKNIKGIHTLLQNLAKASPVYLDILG
Outline: as §1

Tel-TrkC = target: T3, Tel-TrkC (Homo sapiens, UniProt Q16288); experiment: Inhibition of proliferation of Ba/F3 cells expressing Tel-TrkC (BaF3/Tel-TrkC); type: cell-based; conditions: read-out: Ba/F3 Tel-TrkC IC 50
T3 construct: The cells also express luciferase as the viability read-out; it is not fused to the kinase; P41212 (Transcription factor ETV6)
T3 sequence (Q16288 whole entry, the tested form may be a part): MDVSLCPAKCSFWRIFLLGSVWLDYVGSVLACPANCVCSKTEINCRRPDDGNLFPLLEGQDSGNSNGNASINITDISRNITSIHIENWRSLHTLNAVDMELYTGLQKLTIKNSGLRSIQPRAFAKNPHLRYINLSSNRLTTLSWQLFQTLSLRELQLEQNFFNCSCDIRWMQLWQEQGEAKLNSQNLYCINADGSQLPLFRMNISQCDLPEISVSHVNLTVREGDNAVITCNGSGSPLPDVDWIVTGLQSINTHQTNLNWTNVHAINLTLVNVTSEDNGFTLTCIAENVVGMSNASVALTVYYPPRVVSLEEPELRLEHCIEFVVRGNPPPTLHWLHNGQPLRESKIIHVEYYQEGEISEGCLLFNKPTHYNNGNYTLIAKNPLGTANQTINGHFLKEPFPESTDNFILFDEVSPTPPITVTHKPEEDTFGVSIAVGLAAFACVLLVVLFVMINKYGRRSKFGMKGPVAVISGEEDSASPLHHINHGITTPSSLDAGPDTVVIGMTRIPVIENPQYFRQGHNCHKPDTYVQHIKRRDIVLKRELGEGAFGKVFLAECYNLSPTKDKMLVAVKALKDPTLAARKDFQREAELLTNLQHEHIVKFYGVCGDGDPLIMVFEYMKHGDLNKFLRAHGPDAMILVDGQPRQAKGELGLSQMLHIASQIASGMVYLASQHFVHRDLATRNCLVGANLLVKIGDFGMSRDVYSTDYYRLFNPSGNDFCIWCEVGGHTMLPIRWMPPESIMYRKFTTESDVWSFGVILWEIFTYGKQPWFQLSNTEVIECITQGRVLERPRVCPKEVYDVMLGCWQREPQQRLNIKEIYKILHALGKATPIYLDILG
Method: Test compounds were dissolved in DMSO (10 mM) and transferred into 1.4 mL flat bottom or V-shaped Matrix tubes carrying a unique 2D matrix chip by individual compound hubs. The numbers of these chips were distinctively linked to the individual compound identification numbers. The stock solutions were stored at −20° C. if not used immediately. For the test procedure the vials were defrosted and identified by a scanner whereby a working sheet is generated that guides the subsequent working steps.
Compound dilutions were made in 384 well plates. This format enabled the assay of maximally 28 individual test compounds at 12 concentrations (single points) including 2 reference compounds. The dilution protocol included the production of pre-dilution plates, master plates and assay plates: • Compound plates: 30 μL of individual compound (10 mM) DMSO solution including standard compound were transferred into columns 1 and 13 of a 384 well plate. 20 μL of DMSO were added to the rest of the wells and the compounds were serially diluted (1:3) by transferring 10 μL from a well in column 1 or 13 to the next well in column 2 or 14 respectively and successively with the help of a Minitrack robot. • Assay plates: Identical assay plates were then prepared by adding […] each of compound dilutions of the compound plates into 384-well “assay plates”. In the following the compounds were mixed with 50 μL of assays components (cells or enzyme) and tested for their inhibitory activity.
Compounds of Formula (I) were tested for their antiproliferative effect on Ba/F3 cells expressing either Tel-TrkA, Tel-TrkB or Tel-TrkC and an additional panel of 34 selected diverse kinases activated by fusion to the dimerizing partners Bcr or Tel (Abl, A1K, BMX, EphA3, EphB2, FGFR2, FGFR3, FGFR4, FGR, FLT1, FLT3, FLT4, FMS, IGF1R, InsR, JAK1, JAK2, JAK3, KDR, Kit, Lck, Lyn, MER, MET, PDGFRb, RET, RON, Ros-1, Src, Aurora, TIE2, TYK2, Tie1, ZAP70). The antiproliferative effect of these compounds on the different cell lines and on the non transformed cells were tested at 12 different concentrations of 3-fold serially diluted compounds in 384 well plates as described above (in media lacking IL3). The IC50 values of the compounds the different cell lines were determined from dose response curves.
The cell line used is the luciferase expressing Ba/F3 murine hematopoietic progenitor cell line transformed with human Tel-TrkA, Tel-TrkB or Tel-TrkC cDNAs (Ba/F3 EN A/B/C). These cells maintained in RPMI/10% fetal bovine serum (RPMI/FCS) supplemented with penicillin 50 mg/mL, streptomycin 50 mg/mL and L-glutamine […]. Untransformed Ba/F3 cells were similarly maintained with the addition 5 ng/ml of murine recombinant IL3. 50 μl of a Ba/F3 or Ba/F3 EN A/B/C cell suspension were plated in Greiner 384 well microplates (white)) at a density of 2000 cells per well. 50 nl of serially diluted test compound (10-0.0001 mM in DMSO solution) is added to each well. The cells were incubated for 48 hours at 37° C., 5% CO2. 25 μl of Bright Glo® (Promega) luciferase substrate is added to each well. The emited luminiscence is quantified using the ACQUEST™ luminescence system (Molecular Devices). IC50 values were calculated by linear regression analysis of the percentage inhibition of each compound at 12 concentrations.

[2] = target: T4, full length rTrkA and mNGF (Rattus norvegicus, UniProt P35739); experiment: Inhibition of proliferation of Ba/F3 cells co-expressing full length rTrkA and mNGF (BaF3/TrkA-NFG); type: cell-based; conditions: for BaF3 TRKA-NGF CTG IC 50: BaF3 TRKA-NGF cells, CTG readout; for IC50 in BaF3/TrkA-NFG CTG cellular assay: BaF3/TrkA-NFG cells
T4 construct: co-expressing full length rTrkA and mNGF; expressed in transfected cells; host or cells: Ba/F3 cells
T4 sequence (P35739 33-799): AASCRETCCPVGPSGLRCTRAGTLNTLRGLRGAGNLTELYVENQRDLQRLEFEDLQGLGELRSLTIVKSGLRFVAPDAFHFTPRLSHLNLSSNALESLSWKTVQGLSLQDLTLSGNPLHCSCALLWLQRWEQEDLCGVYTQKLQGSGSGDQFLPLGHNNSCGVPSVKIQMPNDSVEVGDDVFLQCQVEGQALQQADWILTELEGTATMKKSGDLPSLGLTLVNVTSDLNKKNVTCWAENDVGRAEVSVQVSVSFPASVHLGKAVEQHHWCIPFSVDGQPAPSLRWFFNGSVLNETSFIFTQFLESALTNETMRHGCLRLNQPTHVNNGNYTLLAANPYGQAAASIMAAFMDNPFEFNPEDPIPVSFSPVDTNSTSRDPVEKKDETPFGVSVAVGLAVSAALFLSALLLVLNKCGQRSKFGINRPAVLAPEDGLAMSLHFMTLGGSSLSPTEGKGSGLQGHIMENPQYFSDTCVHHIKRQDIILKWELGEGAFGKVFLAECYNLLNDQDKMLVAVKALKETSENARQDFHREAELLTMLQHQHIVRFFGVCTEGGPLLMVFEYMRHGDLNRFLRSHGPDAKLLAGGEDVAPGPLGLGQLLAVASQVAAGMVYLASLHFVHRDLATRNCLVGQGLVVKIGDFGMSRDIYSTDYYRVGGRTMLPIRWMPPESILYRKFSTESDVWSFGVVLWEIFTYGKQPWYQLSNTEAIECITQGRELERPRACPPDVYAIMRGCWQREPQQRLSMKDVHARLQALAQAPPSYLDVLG
T4 sequence (P01139 122-241 partner): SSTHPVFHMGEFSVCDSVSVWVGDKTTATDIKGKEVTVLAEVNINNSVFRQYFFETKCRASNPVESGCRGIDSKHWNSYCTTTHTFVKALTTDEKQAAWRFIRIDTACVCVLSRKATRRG

parental BaF3 cells = experiment: Proliferation of parental (untransformed) Ba/F3 cells maintained with IL3; type: cell-based, murine; conditions: Mus musculus
Outline: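 Untransformed murine Ba/F3 cells kept in RPMI/10% FCS with 5 ng/ml murine IL3, plated at 2000 cells/well and exposed to 12 concentrations of compound for 48 h at 37 °C. Viability read by Bright-Glo luciferase luminescence; IC50 from linear regression of % inhibition.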

KM12 luc = KM12 luc cell proliferation assay (Table 8); type: cell-based; conditions: KM12 luc cells; read-out: KM12 luc IC 50
Tel-TrkA [3] = target: T1, Tel-TrkA; experiment: Inhibition of proliferation of Ba/F3 cells expressing Tel-TrkA (BaF3/Tel-TrkA, luciferase/Bright Glo readout); type: cell-based; conditions: read-out: IC50 in BaF3/Tel-TrkA CTG cellular assay
[4] = Ba/F3 Tel-TrkB cells, read-out: Ba/F3 Tel-TrkB IC 50
[5] = BaF3, parental Ba/F3 cells, read-out: Ba/F3 IC 50
[6] = BaF3/Tel-TrkB cells, read-out: IC50 in BaF3/Tel-TrkB CTG cellular assay
[7] = BaF3, parental BaF3 cells, read-out: IC50 in BaF3 CTG cellular assay

Compound	IC50 (Tel-TrkA [1]) [nM]	IC50 (Tel-TrkB; [4]) [nM]	IC50 (Tel-TrkC) [nM]	BaF3 TRKA-NGF CTG IC 50 [2] [nM]	IC50 (parental BaF3 cells; [5]) [nM]	IC50 (KM12 luc) [nM]	IC50 (Tel-TrkB; [6]) [nM]	IC50 in BaF3/TrkA-NFG CTG cellular assay [2] [nM]	IC50 (parental BaF3 cells; [7]) [nM]	IC50 (Tel-TrkA [3]) [nM]
N#Cc1cccc(-n2cnc3ccc(N4CCCC4c4cccc(F)c4)nc32)c1 (centres unmarked) [Table 1-Compound 1]	210	150	69	680	16000	230	–	–	–	–
N#Cc1cc(-c2cnc3ccc(N4CCCC4c4cc(F)ccc4F)nn23)ccc1F (centres unmarked) [Table 5-Compound 1]	51	38	21	43	7660	9.2	–	–	–	–
N#Cc1ccc(-c2cnc3ccc(N4CCCC4c4cc(F)ccc4F)nn23)cc1OCCN1CCOCC1 (centres unmarked) [Table 5-Compound 17]	6.4	15	3.1	34	> 10000	8.8	–	–	–	–
N#Cc1cccc(-n2cnc3ccc(N4C(=O)CSC4c4cc(F)ccc4F)nc32)c1 (centres unmarked) [Table 1-Compound 5]	5670	4170	2610	3580	> 10000	2290	–	–	–	–
CN(C)c1ccc(-c2cnc3ccc(N4CCCC4c4cc(F)ccc4F)nn23)cc1C#N (centres unmarked) [Table 5-Compound 4]	166	60	32	203	5360	89	–	–	–	–
O[C@@H]1CCN(c2nccc(-c3cccc(-c4cnc5ccc(N6CCC[C@@H]6c6cccc(F)c6)nn45)n3)n2)C1 [Compound 14-4, (R)-1-(4-(6-(6-((R)-2-(3-fluorophenyl)pyrrolidin-1-yl)imidazo[1,2-b]pyridazin-3-yl)pyridin-2-yl)pyrimidin-2-yl)pyrrolidin-3-ol]	–	–	–	–	–	–	3.3	4.2	4070	2.2
Fc1cccc([C@H]2CCCN2c2ccc3ncc(-c4cccc(N5CCN(c6cccnc6)CC5)n4)n3n2)c1 [Table 7-Compound 255]	9	17	3	9	> 11000	6	–	–	–	–
Fc1cccc(C2CCCN2c2ccc3ncc(-c4csc(N5CCCCC5)n4)n3n2)c1 (centres unmarked) [Table 3-Compound 6]	360	760	180	540	> 10000	380	–	–	–	–
N#Cc1cccc(-c2cnc3ccc(N4CCCC4c4ccccc4)nn23)c1 (centres unmarked) [Table 3-Compound 54]	86	41	17	111	> 10000	94	–	–	–	–
CN1CCC(Oc2cc(-c3cnc4ccc(N5CCCC5c5cc(F)ccc5F)nn34)ccc2C#N)C1 (centres unmarked) [Table 5-Compound 22]	132	88	27	316	2250	99	–	–	–	–
Fc1cccc(C2CCCN2c2ccc3ncc(-c4cncc(-n5ccnc5)n4)n3n2)c1 (centres unmarked) [Table 3-Compound 11]	87	56	17	74	> 10000	36	–	–	–	–
CC1(c2cccc(F)c2)CCCN1c1ccc2ncc(-c3ccc(C#N)cc3)n2n1 (centres unmarked) [Table 3-Compound 91]	298	129	33	720	8410	84	–	–	–	–
CN1CCN(c2cnc(-c3cnc4ccc(N5CCCC5c5cccc(F)c5)nn34)cn2)CC1 (centres unmarked) [Table 3-Compound 7]	35	52	20	27	5030	23	–	–	–	–
OC1CCN(c2cc(-c3cccc(-c4cnc5ccc(N6CCC[C@@H]6c6cccc(F)c6)nn45)n3)ccn2)CC1 [Compound 16-4, (R)-1-(6-(6-(2-(3-fluorophenyl)pyrrolidin-1-yl)imidazo[1,2-b]pyridazin-3-yl)-2,4′-bipyridin-2′-yl)piperidin-4-ol]	–	–	–	–	–	–	12	13	4410	5.2
CN(C)CCN(C)c1cc(-c2cnc3ccc(N4CCCC4c4cc(F)ccc4F)nn23)ccc1C#N (centres unmarked) [Table 5-Compound 23]	136	74	16	111	3710	109	–	–	–	–
N#Cc1cccc(-n2cnc3ccc(N4CCSC4c4cc(F)ccc4F)nc32)c1 (centres unmarked) [Table 1-Compound 3]	28	22	18	450	> 10000	37	–	–	–	–
